Each structure is given as a SMILES string.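 Cells were grown in 96-well plates and exposed to each compound for 48 hours at five concentrations; endpoints were interpolated linearly between bracketing concentrations, or set to the highest concentration if not reached. Abbreviation: GI50, concentration required for 50% inhibition of growth. TGI: concentration producing complete growth inhibition.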 Bounds are passed on as bounds.

Assay in all cases: NCI-60 cell line screen, 48 h
In test [1] the test system is UO-31 renal.
For test [2], the system named is UACC-62 melanoma.
The subject of test [3] is HL-60(TB) leukemia.
Test [4] deals with SK-MEL-5 melanoma.
The subject of test [5] is SF-539 CNS.
For test [6], the system named is RPMI-8226 leukemia.
The subject of test [7] is EKVX NSCLC.
The test system of test [8] is MALME-3M melanoma.
The test system of test [9] is MDA-MB-231 breast.
For test [10], the system named is MCF7 breast.

On to `C=C1C2CC(OC(C)=O)C3(C)C(c4ccoc4)OC(=O)[C@@H](O)[C@]13OC1C[C@H](OC(C)=O)C(C)(C)[C@H](C(O)C(=O)OC)[C@]12C` (some centres undefined), for which the TGI in test [1], in [2], in test [3], in test [4], in [5] and in [6] was greater than 100 µM each time. Besides, the TGI in test [7] is greater than 100 µM.
For `CC1=NC(C)=C(/C(C)=N/NC(=O)c2ccccc2O)C(C)/C1=C(/C)NNC(=O)c1ccccc1O` (centres undefined), the TGI in [1] turned out to be 43.1 µM; in test [2], 26.3 µM; in test [3], 22.4 µM; in [4] it was 38.9 µM; in [8], 80.8 µM; in test [5] it was 76.2 µM. The compound further came in with a TGI in test [7] of 48.4 µM.
As to `CC(=O)O[C@H]1CC[C@@]2(C)C(=CC[C@H]3C(CC#N)[C@@](C)(C#N)CCC32)C1` (some centres undefined), the TGI in test [1], in test [2], in [3], in test [4], in test [8] and in test [5] was greater than 100 µM each time. For the same compound, the TGI in [6] and in test [7] was greater than 100 µM in each case.
Consider `CSc1nc2c(nc(N)n2C2OC(CO)C(O)C(O)C2O)c(=O)[nH]1` (centres undefined), for which the TGI in [1], in [2], in test [3], in [4], in [8] and in [5] was greater than 100 µM each time. In test [7], this compound displayed a TGI greater than 100 µM.
`COc1nc(NC2OC(COC(C)=O)C(OC(C)=O)C(OC(C)=O)C2OC(C)=O)c(N=C(C)C(C)=O)c(=O)n1C` (centres undefined): the TGI in test [1], in test [2], in [3], in [4], in test [8] and in test [5] was greater than 100 µM each time. Besides, the TGI in test [6] and in test [7] was greater than 100 µM throughout.
On to `COc1ccc(/C=C/c2cc(OC)c(OC)c(OC)c2)cc1OC`, for which the TGI in [1], in test [2], in [3], in [4], in [8] and in test [5] was greater than 100 µM each time. In addition, the TGI in test [6] and in test [7] was greater than 100 µM each time.
`CC(=O)OC1CC2C(C)(C)C(=O)C=C[C@]2(C)C2CCC3(C)C(c4ccoc4)C(=O)C4OC43[C@]12C` (some centres undefined): the TGI stood at 37.6 µM in test [1]; 34.3 µM in test [2]; 29.9 µM in test [3]; 30 µM in test [4]; 40.3 µM in [8]; 40.2 µM in test [5]. Moreover, the values for the TGI in [6] and in [7] were 22.5 µM and greater than 100 µM, respectively.
For the compound `C/C(=N\NC(=O)c1ccccc1O)c1c(O)cc(C)oc1=O`, the TGI in test [1], in test [2], in [3], in [4], in test [8] and in [5] was greater than 100 µM in each case. For the same compound, the TGI was greater than 100 µM in [6] and 88.6 µM in test [7].
For `CCCCCCCCCCCCCCCCCC1=NC(C)(C)CN1C(C)(C)CO`, the GI50 was 1.29 µM in [9]; 1.42 µM in test [1]; 1.79 µM in [2]; 1.15 µM in test [3]; 1.68 µM in test [4]; 1.94 µM in test [8]. Further, the GI50 is 1.59 µM in test [5], 1.8 µM in test [6] and 2.21 µM in test [7]. The TGI in test [9] came to 3.16 µM; in [1], 3.43 µM; in test [2], 3.46 µM; in test [3] it was 4.07 µM; in [4], 3.07 µM; in test [8] it was 4.22 µM. Besides, the TGI in test [5] turned out to be 3.14 µM; in test [6], 4.37 µM; in test [7], 14 µM.
In the case of `O=[N+]([O-])c1cc(I)cc(/C=N/NS(=O)(=O)c2ccc(F)cc2)c1O`, the TGI in [1] worked out at 61 µM; in test [2] it was 41.6 µM; in test [3] it was 54.4 µM; in test [4], 45.2 µM; in [8], 52.4 µM; in [5], 55.8 µM. The TGI in test [6] was 54.8 µM; in test [7] it was 92.9 µM.
Consider `C=C(C)[C@@H]1C/C=C(/COC(C)=O)CC[C@H]2O[C@@]2(C)CC/C=C(\C)CC1`, for which the GI50 in [1] is 30.4 µM; in [2], greater than 100 µM; in test [10], 81 µM; in test [4], greater than 100 µM; in test [8], greater than 100 µM; in test [6] it was 21.1 µM. In addition, the TGI was greater than 100 µM in test [1]; greater than 100 µM in [2]; greater than 100 µM in test [10]; greater than 100 µM in test [4]; greater than 100 µM in test [8]; 44 µM in test [6].
Regarding `Cn1nc(-c2ccccc2)c2c(/C=C/c3ccc(F)cc3)onc2c1=O`, the TGI in test [1], in test [2], in test [3], in test [4], in [5] and in [6] was greater than 100 µM in each case. Further, the TGI in test [7] is greater than 100 µM.
For `CCCCCCCCCCNC(=S)OC`, the TGI in test [1] is 85.8 µM; in test [2], 65 µM; in test [3], 44.8 µM; in test [4] it was 54.1 µM; in [8], greater than 100 µM; in test [5] it was greater than 100 µM. The TGI in test [6] is 36.7 µM; in test [7], greater than 100 µM.
`Cn1c(=O)nc2n(-c3ccc(F)c(F)c3)c3ccccc3nc-2c1=O`: the TGI in [1] was greater than 100 µM; in test [2] it was 5.47 µM; in [3] it was 34.9 µM; in test [4], 22.5 µM; in [8], 24.3 µM; in [5], greater than 100 µM. In addition, the TGI was 72.2 µM in [6] and 17.7 µM in test [7].
For the compound `CC(=O)N(N=O)c1ccc(N(N=O)C(C)=O)cc1`, the TGI in test [1], in test [2], in [3], in test [4], in test [8] and in test [5] was greater than 100 µM throughout. For the same compound, in test [6], the TGI was greater than 100 µM.
